From US4442044A, “Process for preparing monoesters and diesters of N-alkyl substituted amino methyl phosphonic acid” (priority 1983, dated 1984)

Tests used:
Test in all cases: post-emergent herbicidal activity, greenhouse
Assay type in all cases: in vivo
Conditions in all cases: Table I
Barnyardgrass = test system: Barnyardgrass
Excerpt: (§1) A good grade of top soil is placed in aluminum pans having holes in the bottom and compacted to a depth of 0.95 to 1.27 cm. from the top of the pan. A predetermined number of seeds of each of several dicotyledonous and monocotyledonous annual plant species and/or vegetative propagules for the perennial plant species were placed on the soil and pressed into the soil surface. The seeds and/or vegetative propagules are covered with soil and leveled. The pans are then placed on a sand bench in the greenhouse and watered from below as needed. After the plants reach the desired age (two to three weeks), each pan except for the control pans is removed individually to a spraying chamber and sprayed by means of an atomizer operating at a positive air pressure of approximately 1.46 kg/cm^2 absolute. The atomizer contains 6 ml. of a solution or suspension of the chemical. In that 6 ml., is an amount of a cyclohexanone emulsifying agent mixture to give a spray solution or suspension which contains about 0.4% by weight of the emulsifier. The spray solution or suspension contains a sufficient amount of the candidate chemical in order to give application rates corresponding to those set forth in the tables. The spray solution is prepared by taking an aliquot of a 1.0% by weight stock solution or suspension of the candidate chemical in an organic solvent such as acetone or tetrahydrofuran or in water. The emulsifying agent employed is a mixture comprising 35 weight percent butylamine dodecylbenzene sulfonate and 65 weight percent of a tall oil ethylene oxide condensate having about 11 moles of ethylene oxide per mole of tall oil. The pans are returned to the greenhouse and watered as before and the injury to the plants as compared to the control is observed at approximately two and four weeks as indicated in the tables under WAT and the results recorded. In some instances, the two-week observations are omitted.
(§2) The post-emergent herbicidal activity index used in Tables I and II is as follows: […]

Canada Thistle = test system: Canada Thistle
Excerpt: as §1, §2

Cocklebur = test system: Cocklebur
Excerpt: as §1, §2

Downy Brome = test system: Downy Brome
Excerpt: as §1, §2

Johnsongrass = test system: Johnsongrass
Excerpt: as §1, §2

Lambsquarters = test system: Lambsquarters
Excerpt: as §1, §2

Morningglory = test system: Morningglory
Excerpt: as §1, §2

Quackgrass = test system: Quackgrass
Excerpt: as §1, §2

Smartweed = test system: Smartweed
Excerpt: as §1, §2

Velvetleaf = test system: Velvetleaf
Excerpt: as §1, §2

Yellow Nutsedge = test system: Yellow Nutsedge
Excerpt: as §1, §2

Measured: post-emergent herbicidal activity index

CCOC(=O)CNCP(=O)(OC(C)C(=O)OC)OC(C)C(=O)OC (centres unmarked) [Example 18]
0 (0-24% control): Canada Thistle; 4 WAT, 5.6 kg/h | Canada Thistle; 4 WAT, 11.2 kg/h | Cocklebur; 4 WAT, 5.6 kg/h | Cocklebur; 4 WAT, 11.2 kg/h | Downy Brome; 4 WAT, 5.6 kg/h | Johnsongrass; 4 WAT, 5.6 kg/h | Lambsquarters; 4 WAT, 5.6 kg/h | Lambsquarters; 4 WAT, 11.2 kg/h | Quackgrass; 4 WAT, 5.6 kg/h | Smartweed; 4 WAT, 5.6 kg/h | Smartweed; 4 WAT, 11.2 kg/h | Velvetleaf; 4 WAT, 5.6 kg/h | Velvetleaf; 4 WAT, 11.2 kg/h
1 (25-49% control): Barnyardgrass; 4 WAT, 5.6 kg/h | Johnsongrass; 4 WAT, 11.2 kg/h | Morningglory; 4 WAT, 5.6 kg/h | Morningglory; 4 WAT, 11.2 kg/h | Yellow Nutsedge; 4 WAT, 5.6 kg/h
3 (75-99% control): Quackgrass; 4 WAT, 11.2 kg/h
2 (50-74% control): Barnyardgrass; 4 WAT, 11.2 kg/h | Downy Brome; 4 WAT, 11.2 kg/h | Yellow Nutsedge; 4 WAT, 11.2 kg/h

CCOC(=O)CNCP(=O)(OCCSC(=O)OCC)OCCSC(=O)OCC [Example 19, glycine, N-[[bis[2-[(ethoxycarbonyl)thio]ethoxy]-phosphinyl]methyl]-, ethyl ester]
2 (50-74% control): Barnyardgrass; 4 WAT, 11.2 kg/h | Canada Thistle; 4 WAT, 11.2 kg/h | Cocklebur; 4 WAT, 11.2 kg/h | Johnsongrass; 4 WAT, 11.2 kg/h | Morningglory; 4 WAT, 5.6 kg/h | Morningglory; 4 WAT, 11.2 kg/h
1 (25-49% control): Barnyardgrass; 4 WAT, 5.6 kg/h | Canada Thistle; 4 WAT, 5.6 kg/h | Johnsongrass; 4 WAT, 5.6 kg/h | Quackgrass; 4 WAT, 11.2 kg/h | Smartweed; 4 WAT, 11.2 kg/h | Yellow Nutsedge; 4 WAT, 11.2 kg/h
0 (0-24% control): Cocklebur; 4 WAT, 5.6 kg/h | Downy Brome; 4 WAT, 5.6 kg/h | Downy Brome; 4 WAT, 11.2 kg/h | Lambsquarters; 4 WAT, 5.6 kg/h | Lambsquarters; 4 WAT, 11.2 kg/h | Quackgrass; 4 WAT, 5.6 kg/h | Smartweed; 4 WAT, 5.6 kg/h | Velvetleaf; 4 WAT, 5.6 kg/h | Velvetleaf; 4 WAT, 11.2 kg/h | Yellow Nutsedge; 4 WAT, 5.6 kg/h

CCOC(=O)CNCP(=O)(OC1CCCSC1)OC1CCCSC1 (centres unmarked) [Example 20, glycine, N-[[bis[(tetrahydro-2H-thiopyran-3-yl)-oxy]-phosphinyl]methyl]-, ethyl ester]
1 (25-49% control): Barnyardgrass; 4 WAT, 11.2 kg/h | Lambsquarters; 4 WAT, 11.2 kg/h | Morningglory; 4 WAT, 11.2 kg/h | Quackgrass; 4 WAT, 11.2 kg/h | Velvetleaf; 4 WAT, 11.2 kg/h
0 (0-24% control): Barnyardgrass; 2 WAT, 5.6 kg/h | Canada Thistle; 2 WAT, 5.6 kg/h | Canada Thistle; 4 WAT, 11.2 kg/h | Cocklebur; 2 WAT, 5.6 kg/h | Cocklebur; 4 WAT, 11.2 kg/h | Downy Brome; 2 WAT, 5.6 kg/h | Downy Brome; 4 WAT, 11.2 kg/h | Johnsongrass; 2 WAT, 5.6 kg/h | Johnsongrass; 4 WAT, 11.2 kg/h | Lambsquarters; 2 WAT, 5.6 kg/h | Morningglory; 2 WAT, 5.6 kg/h | Quackgrass; 2 WAT, 5.6 kg/h | Smartweed; 2 WAT, 5.6 kg/h | Smartweed; 4 WAT, 11.2 kg/h | Velvetleaf; 2 WAT, 5.6 kg/h | Yellow Nutsedge; 2 WAT, 5.6 kg/h | Yellow Nutsedge; 4 WAT, 11.2 kg/h

CCOC(=O)CNCP(=O)(OCc1ccco1)OCc1ccco1 [Example 21, glycine, N-[[bis(2-furanylmethoxy)phosphinyl]methyl]-, ethyl ester]
1 (25-49% control): Downy Brome; 4 WAT, 56.0 kg/h | Lambsquarters; 4 WAT, 56.0 kg/h | Morningglory; 4 WAT, 11.2 kg/h | Smartweed; 4 WAT, 56.0 kg/h | Velvetleaf; 4 WAT, 56.0 kg/h | Yellow Nutsedge; 4 WAT, 56.0 kg/h
0 (0-24% control): Barnyardgrass; 4 WAT, 11.2 kg/h | Canada Thistle; 4 WAT, 11.2 kg/h | Cocklebur; 4 WAT, 11.2 kg/h | Downy Brome; 4 WAT, 11.2 kg/h | Johnsongrass; 4 WAT, 11.2 kg/h | Johnsongrass; 4 WAT, 56.0 kg/h | Lambsquarters; 4 WAT, 11.2 kg/h | Quackgrass; 4 WAT, 11.2 kg/h | Quackgrass; 4 WAT, 56.0 kg/h | Smartweed; 4 WAT, 11.2 kg/h | Velvetleaf; 4 WAT, 11.2 kg/h | Yellow Nutsedge; 4 WAT, 11.2 kg/h
2 (50-74% control): Barnyardgrass; 4 WAT, 56.0 kg/h | Cocklebur; 4 WAT, 56.0 kg/h | Morningglory; 4 WAT, 56.0 kg/h
3 (75-99% control): Canada Thistle; 4 WAT, 56.0 kg/h

CCOC(=O)CNCP(=O)(OCC1CCCCO1)OCC1CCCCO1 (centres unmarked) [Example 23, glycine, N-[[bis(tetrahydro-2H-pyran-2-ylmethoxy)phosphinyl]methyl]-, ethyl ester]
0 (0-24% control): Barnyardgrass; 2 WAT, 5.6 kg/h | Canada Thistle; 2 WAT, 5.6 kg/h | Canada Thistle; 4 WAT, 11.2 kg/h | Cocklebur; 2 WAT, 5.6 kg/h | Cocklebur; 4 WAT, 11.2 kg/h | Downy Brome; 2 WAT, 5.6 kg/h | Downy Brome; 4 WAT, 11.2 kg/h | Johnsongrass; 2 WAT, 5.6 kg/h | Lambsquarters; 2 WAT, 5.6 kg/h | Lambsquarters; 4 WAT, 11.2 kg/h | Morningglory; 2 WAT, 5.6 kg/h | Quackgrass; 2 WAT, 5.6 kg/h | Quackgrass; 4 WAT, 11.2 kg/h | Smartweed; 2 WAT, 5.6 kg/h | Velvetleaf; 2 WAT, 5.6 kg/h | Velvetleaf; 4 WAT, 11.2 kg/h | Yellow Nutsedge; 2 WAT, 5.6 kg/h | Yellow Nutsedge; 4 WAT, 11.2 kg/h
1 (25-49% control): Barnyardgrass; 4 WAT, 11.2 kg/h | Morningglory; 4 WAT, 11.2 kg/h | Smartweed; 4 WAT, 11.2 kg/h

CCOC(=O)CNCP(=O)(O)OC(C)CC(=O)OCC (centres unmarked) [Example 25]
1 (25-49% control): Barnyardgrass; 4 WAT, 5.6 kg/h | Canada Thistle; 4 WAT, 11.2 kg/h | Johnsongrass; 4 WAT, 5.6 kg/h | Morningglory; 4 WAT, 5.6 kg/h | Quackgrass; 4 WAT, 11.2 kg/h | Velvetleaf; 4 WAT, 11.2 kg/h
2 (50-74% control): Barnyardgrass; 4 WAT, 11.2 kg/h | Cocklebur; 4 WAT, 11.2 kg/h | Johnsongrass; 4 WAT, 11.2 kg/h | Morningglory; 4 WAT, 11.2 kg/h | Yellow Nutsedge; 4 WAT, 11.2 kg/h
0 (0-24% control): Canada Thistle; 4 WAT, 5.6 kg/h | Cocklebur; 4 WAT, 5.6 kg/h | Downy Brome; 4 WAT, 5.6 kg/h | Downy Brome; 4 WAT, 11.2 kg/h | Lambsquarters; 4 WAT, 5.6 kg/h | Lambsquarters; 4 WAT, 11.2 kg/h | Quackgrass; 4 WAT, 5.6 kg/h | Smartweed; 4 WAT, 5.6 kg/h | Smartweed; 4 WAT, 11.2 kg/h | Velvetleaf; 4 WAT, 5.6 kg/h | Yellow Nutsedge; 4 WAT, 5.6 kg/h
